Tested on: rat hepatocytes
Assay: In vitro metabolism of 14C-amifampridine in rat hepatocytes (Example 1)
Type: in vitro ADME
Description: The objective of this hepatocyte study was to determine the extent of metabolism, complete metabolic profile and metabolite characterization of amifampridine phosphate in several species with ^14C-amifampridine phosphate for a cross species comparison. The following procedures were used to study the metabolism in rat (Example 1), dog (Example 2), and human hepatocytes (Example 3).
The cryopreserved hepatocytes were removed from storage, quickly thawed in a 37° C. water bath for 1 to 2 min, and transferred to a 50 ml tube containing pre-warmed InVitroGRO HT medium (Celsis Inc., Baltimore). The cell suspension was mixed by gentle inversion and the cells were pelleted by centrifugation at 50 to 75×g for 5 min. The supernatant medium was removed and the cells were resuspended in Williams' Medium E. Hepatocyte viability was assessed by using trypan blue exclusion. Hepatocyte density was determined by counting cells with a hemocytometer and the density was adjusted with Williams' Medium E to achieve a final density of 1,000,000 cells/mL. […] The supernatant medium was removed and the cells were resuspended in cold Williams' Medium E. The cell density was then determined using a hemocytometer and the density was adjusted with Williams' Medium E to achieve a final density of 1,000,000 cells/mL. […]

Question: Which “formation of single major acetylated amifampridine metabolite” value does the source give for `Nc1ccncc1N` [3,4-DAP, 3,4-diaminopyridine] here?
Answer: extensive
